{"source": "ChEMBL document CHEMBL2401684", "about": "“Synthesis and evaluation of a conditionally-silent agonist for the α7 nicotinic acetylcholine receptor” (Bioorg Med Chem Lett, 2013)", "key": {"[1]": {"target": "T1, Neuronal acetylcholine receptor subunit alpha-7 (Homo sapiens, UniProt P36544)", "T1 sequence (P36544 whole entry)": "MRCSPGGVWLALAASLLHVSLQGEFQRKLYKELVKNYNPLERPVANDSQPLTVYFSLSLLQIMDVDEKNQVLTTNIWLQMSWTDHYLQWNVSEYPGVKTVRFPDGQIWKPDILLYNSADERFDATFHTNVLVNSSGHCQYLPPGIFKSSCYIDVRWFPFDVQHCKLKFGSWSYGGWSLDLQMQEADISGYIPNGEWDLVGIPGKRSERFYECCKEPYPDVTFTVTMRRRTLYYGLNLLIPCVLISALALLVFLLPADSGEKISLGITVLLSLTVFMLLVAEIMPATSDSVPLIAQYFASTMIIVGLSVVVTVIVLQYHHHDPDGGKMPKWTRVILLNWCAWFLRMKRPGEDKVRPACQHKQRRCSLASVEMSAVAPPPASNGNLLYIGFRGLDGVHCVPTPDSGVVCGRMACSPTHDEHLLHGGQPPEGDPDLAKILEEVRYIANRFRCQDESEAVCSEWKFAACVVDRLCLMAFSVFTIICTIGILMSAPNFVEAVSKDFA", "experiment": "Silent agonist activity at human alpha7 nAChR expressed in Xenopus laevis oocytes assessed as induction of TQS-stimulated peak current", "assay_type": "cell-based", "settings": "Oocyte"}, "[2]": {"target": "T1, Neuronal acetylcholine receptor subunit alpha-7", "experiment": "Antagonist activity at human alpha7 nAChR expressed in Xenopus laevis oocytes assessed as reduction of acetylcholine-induced peak current at 100 uM", "assay_type": "cell-based", "settings": "Oocyte"}, "[3]": {"target": "T1, Neuronal acetylcholine receptor subunit alpha-7", "experiment": "Silent agonist activity at human alpha7 nAChR expressed in Xenopus laevis oocytes assessed as induction of PNU-120596-stimulated peak current", "assay_type": "cell-based, Oocyte"}, "[4]": {"target": "T1, Neuronal acetylcholine receptor subunit alpha-7", "experiment": "Silent agonist activity at human alpha7 nAChR expressed in Xenopus laevis oocytes assessed as induction of PNU-120596-stimulated peak current in presence of methyllycaconitine", "assay_type": "cell-based", "settings": "Oocyte"}, "[5]": {"target": "T1, Neuronal acetylcholine receptor subunit alpha-7", "experiment": "Silent agonist activity at human alpha7 nAChR expressed in Xenopus laevis oocytes assessed as induction of PNU-120596-stimulated peak current at 100 uM", "assay_type": "cell-based", "settings": "Oocyte"}, "[6]": {"target": "T1, Neuronal acetylcholine receptor subunit alpha-7", "experiment": "Agonist activity at human alpha7 nAChR expressed in Xenopus laevis oocytes assessed as induction of peak current at 100 uM", "assay_type": "cell-based", "settings": "Oocyte"}, "[7]": {"target": "T1, Neuronal acetylcholine receptor subunit alpha-7", "experiment": "Agonist activity at human alpha7 nAChR expressed in Xenopus laevis oocytes assessed as induction of acetylcholine-stimulated peak inward current by two-electrode voltage clamp assay", "assay_type": "cell-based", "settings": "Oocyte"}, "[8]": {"target": "Neuronal acetylcholine receptor subunit alpha-7 (Rattus norvegicus) (UniProt Q05941)", "sequence (Q05941 whole entry)": "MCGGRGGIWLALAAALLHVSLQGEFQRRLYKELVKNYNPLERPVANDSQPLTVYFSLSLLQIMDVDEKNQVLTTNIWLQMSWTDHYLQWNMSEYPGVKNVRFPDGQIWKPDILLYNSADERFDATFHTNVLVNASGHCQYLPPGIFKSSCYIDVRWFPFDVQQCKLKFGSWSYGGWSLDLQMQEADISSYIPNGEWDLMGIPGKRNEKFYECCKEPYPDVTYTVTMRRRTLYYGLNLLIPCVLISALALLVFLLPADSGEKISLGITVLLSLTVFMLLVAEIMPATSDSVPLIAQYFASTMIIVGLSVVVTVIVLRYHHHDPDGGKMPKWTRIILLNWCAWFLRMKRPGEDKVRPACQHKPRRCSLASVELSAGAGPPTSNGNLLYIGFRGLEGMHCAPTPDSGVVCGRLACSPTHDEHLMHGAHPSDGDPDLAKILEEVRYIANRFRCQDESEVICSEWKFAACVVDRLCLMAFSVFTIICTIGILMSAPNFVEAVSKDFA", "experiment": "Agonist activity at rat alpha7 nAChR expressed in Xenopus laevis oocytes assessed as induction of acetylcholine-stimulated peak inward current by two-electrode voltage clamp assay", "assay_type": "cell-based", "settings": "Oocyte"}}, "note": "Active and inactive are the calls of the source. The calls are words filed in the database; no cut-off is given here."}
{"compound": "c1ccc(-c2cncc(C3=NCCCC3)c2)cc1", "values": [{"measurement": "Activity", "setting": "[1]", "value": "Active"}, {"measurement": "Activity", "setting": "[2]", "value": "Active"}, {"measurement": "IC50", "setting": "[3]", "value": 41, "unit": "µM"}, {"measurement": "Activity", "setting": "[4]", "value": "inactive"}, {"measurement": "Activity", "setting": "[5]", "value": "Active"}, {"measurement": "Activity", "setting": "[6]", "value": "inactive"}]}
{"compound": "O=C(c1ccc(-c2cccc(C(F)(F)F)c2)o1)N1CCN2CCC1CC2", "values": [{"measurement": "Activity", "setting": "[7]", "value": "< 2", "unit": "%"}, {"measurement": "Activity", "setting": "[8]", "value": "< 2", "unit": "%"}]}
